Reference: patent US20110059941A1, “2-PHENYL SUBSTITUTED IMIDAZOL [4,5B] PYRIDINE/PYRAZINE AND PURINE DERIVATIVES AS GLUCOKINASE MODULATORS” (priority 2005, published 2011)
pEC50: −log10 of the molar value.

Target: T1, recombinant human pancreatic GLK (Homo sapiens, UniProt P35557)
T1 sequence (P35557 1-465): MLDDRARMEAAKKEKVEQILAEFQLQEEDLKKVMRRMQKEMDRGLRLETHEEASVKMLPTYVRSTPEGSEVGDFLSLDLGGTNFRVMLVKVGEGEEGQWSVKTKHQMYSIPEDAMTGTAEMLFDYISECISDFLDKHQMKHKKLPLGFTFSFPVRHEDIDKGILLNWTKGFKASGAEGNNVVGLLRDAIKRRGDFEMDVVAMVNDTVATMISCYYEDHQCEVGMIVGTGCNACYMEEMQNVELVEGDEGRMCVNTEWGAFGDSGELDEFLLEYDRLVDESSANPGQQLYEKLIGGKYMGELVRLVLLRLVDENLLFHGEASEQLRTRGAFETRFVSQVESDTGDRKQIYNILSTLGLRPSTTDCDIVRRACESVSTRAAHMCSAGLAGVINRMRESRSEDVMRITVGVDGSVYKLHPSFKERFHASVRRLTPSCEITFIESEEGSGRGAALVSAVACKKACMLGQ
Assay: biochemical

## COC[C@H](C)Oc1cc(OCc2ccccc2)cc(-c2nc3cccnc3[nH]2)c1 [Example 1, 2-{3-(Benzyloxy)-5-[(1S)-2-methoxy-1-methylethoxy]phenyl}-3H-imidazo[4,5-b]pyridine]
  pEC50: 6.22
